Test results as given in patent US8697158B2, “Mineral amino acid polysaccharide complex” (Melaleuca, Inc., priority 2008, dated 2014).

Key:
[1] = Copper-mediated oxidation of Trolox (Fenton system, EPR)
Description: The one-electron oxidation of Trolox results in the formation of a phenoxyl radical that is readily detected by EPR. All EPR measurements were done in using a Bruker ER-200 X-band EPR spectrometer. Samples (50 μL) in capillary tubes (0.5 mm i.d.) were examined at room temperature.

[2] = Mineral solubility at conditions close to physiological; conditions: one hour at pH 1-1.2, then one hour at pH 7-7.2; supernatant after centrifugation
Description: Two forms of zinc, copper, and iron were tested for solubility at conditions close to physiological. […] Samples, in an amount equivalent to 20 tablets, were suspended in 20 mL of water. The pH was adjusted to 1-1.2 and maintained for one hour, simulating a gastric environment. After the first hour, the pH was adjusted to 7-7.2 and maintained for another hour, simulating an intestinal environment. The product was then centrifuged and the supernatant taken for analysis.

[3] = Ascorbyl radical kinetics (EPR), iron-catalyzed ascorbic oxidation; conditions: for relative amplitude of the ascorbyl radical signal: iron solution 0.9 mM, ascorbic acid 4.04 mM, HEPES pH 7.2
Description: Samples of iron(II) sulfate, iron(II) bis-glycinate (FeAAC), and an iron(II) bis-glycinate inulin complex (FeAAC/OF; ratio 1:10 w/w) were analyzed using EPR spectroscopy to determine their ability to generate the ascorbate radical, i.e. to catalyze ascorbic oxidation. The samples were dissolved in 10 mM HEPES buffer (pH 7.2) to a final concentration 0.9 mM of iron.
The iron solutions were mixed with the ascorbic acid solution, and the mixture was transferred into capillary tubes for measurement. Multiple readings were performed over 30 minutes.
EPR measurements were performed in 50 μL capillary tubes at room temperature using a Bruker ER-200 X-band EPR spectrometer.
The relative amplitudes of the ascorbyl radical signal, which can be correlated to the concentration of ascorbyl radical present in the solution, were measured (Table 2).

[4] = Hydroxyl radical formation (EPR, DMPO spin trapping); conditions: metal 800 μM, DMPO 18.7 mM, H2O2 61 mM, HEPES pH 7.2; relative to AAC
Description: The rate of hydroxyl radical formation catalyzed by a complex comprising an iron- or copper-amino acid inulin complex was compared to the iron- or copper-amino acid compound alone.
Mineral (Cu or Fe) was dissolved in 10 mM HEPES buffer (pH 7.2) containing DMPO. Iron and copper were used in the form of amino acid compounds (i.e., glycinates; AAC) and as amino acid inulin complexes (1:9 w/w; AAC/OF). Hydrogen peroxide was added 90 seconds prior to measurement.
The spin trapping reagent—5,5-dimethylpyrroline-N-oxide (DMPO) was used for monitoring hydroxyl radical.
The relative signal amplitudes for DMPO/hydroxyl radical adduct, which can be correlated to the concentration of hydroxyl radical present in the solution, was measured (Table 3).

| Compound | relative amplitude of the ascorbyl radical signal ([3]; time 1.5 min) | relative amplitude of the ascorbyl radical signal ([3]; time 3.5 min) | relative amplitude of the ascorbyl radical signal ([3]; time 5.5 min) | relative amplitude of the ascorbyl radical signal ([3]; time 10.0 min) | relative amplitude of the ascorbyl radical signal ([3]; time 14.0 min) | relative amplitude of the ascorbyl radical signal ([3]; time 20.0 min) | relative amplitude of the ascorbyl radical signal ([3]; time 28.0 min) | relative signal amplitude for DMPO/hydroxyl radical adduct [4] | other results |
| --- | --- | --- | --- | --- | --- | --- | --- | --- | --- |
| gluconate |  |  |  |  |  |  |  |  | EPR signal of the Trolox free radical, reduction compared to CuSO4 [1]: about 15% |
| [O-2].[Zn+2] [Zinc Inorganic Form, zinc oxide] |  |  |  |  |  |  |  |  | percent of solubilized mineral [2]: 1.2% |
| O=S(=O)([O-])[O-].[Fe+2] [FeSO4, iron(II) sulfate] | 100% | 76% | 64% | 24% | 14% | 10% | 5% |  |  |
| NCC(=O)[O-].NCC(=O)[O-].[Cu+2] [Cu AAC] |  |  |  |  |  |  |  | 100% |  |
| NCC(=O)[O-].NCC(=O)[O-].[Fe+2] [FeAAC, iron(II) bis-glycinate] | 100% | 74% | 65% | 47% | 33% | 19% | 19% | 100% | stabilization (lifetime) of the ascorbyl radical ([3]; compared with the iron sulfate): longer period of time |
